Measured values taken from paper PMC5224920, “Assessing the mechanism and therapeutic potential of modulators of the human Mediator complex-associated protein kinases” (eLife, 2016).

Tested on: 12 single or co-culture in vitro tissue models of primary cells
Test: Culture/co-culture cell model panel, extracellular biomarkers (DiscoveRx); on CCL2/MCP-1: reference of the scale not given here; on CXCL8/IL-8: reference of the scale not given here; on CXCL9/MIG: reference of the scale not given here; on M-CSF: reference of the scale not given here; on SRB: reference of the scale not given here
Assay type: cell-based, human
[1] = /HDFNo unstimulated fibroblasts, 1.00E0 nM
[2] = /HDFNo unstimulated fibroblasts, 1.00E1 nM
[3] = /HDFNo unstimulated fibroblasts, 1.00E2 nM
[4] = /HDFNo unstimulated fibroblasts, 1.00E3 nM
[5] = /HDFNo unstimulated fibroblasts, 1.00E4 nM

`Cn1ncc2cc(-c3cnc(N)c(Cl)c3N3CCC4(CCNC4=O)CC3)ccc21` [CMPD 3] was tested, and the “Collagen I” value (/HDF3CT, 1.00E3 nM) was 0.027, the M-CSF (/HDF3CT, 1.00E3 nM) was -0.00149 and the MMP-1 (/HDF3CT, 1.00E3 nM) was 0.040. It also gave a PAI-I (/HDF3CT, 1.00E3 nM) of -0.123, an SRB (/HDF3CT, 1.00E3 nM) of 0.00334 and a TIMP-2 (/HDF3CT, 1.00E3 nM) of 0.107. The CCL2/MCP-1 (/HDF3CT, 1.00E4 nM) was -0.053, the CD54/ICAM-1 (/HDF3CT, 1.00E4 nM) was -0.081 and the CD106/VCAM-1 (/HDF3CT, 1.00E4 nM) was 0.009. The CXCL8/IL-8 (/HDF3CT, 1.00E4 nM) was -0.144, the CXCL9/MIG (/HDF3CT, 1.00E4 nM) was -0.049 and the CXCL10/IP-10 (/HDF3CT, 1.00E4 nM) was -0.00029. For the same molecule, the “Collagen I” value (/HDF3CT, 1.00E4 nM) was 0.010, the M-CSF (/HDF3CT, 1.00E4 nM) was -0.092 and the MMP-1 (/HDF3CT, 1.00E4 nM) was 0.107. It also gave a PAI-I (/HDF3CT, 1.00E4 nM) of -0.208, an SRB (/HDF3CT, 1.00E4 nM) of -0.230 and a TIMP-2 (/HDF3CT, 1.00E4 nM) of 0.271. It also gave a CXCL8/IL-8 [1] of 0.059, a CXCL9/MIG [1] of 0.119 and a CXCL10/IP-10 [1] of 0.034. For the same molecule, the CXCL11/I-TAC [1] was 0.074, the EGFR [1] was 0.022 and the M-CSF [1] was 0.066. For the same molecule, the MMP-1 [1] was 0.081, the PAI-I [1] was 0.044 and the Proliferation_72hr [1] was -0.013. For the same molecule, the SRB [1] was 0.039, the TIMP-1 [1] was 0.047 and the TIMP-2 [1] was 0.100. The CXCL8/IL-8 [2] was 0.037, the CXCL9/MIG [2] was 0.058 and the CXCL10/IP-10 [2] was 0.054. It also gave a CXCL11/I-TAC [2] of -0.002, an EGFR [2] of 0.009 and a M-CSF [2] of 0.048. For the same molecule, the MMP-1 [2] was 0.040, the PAI-I [2] was -0.042 and the Proliferation_72hr [2] was 0.000939. The SRB [2] was 0.011, the TIMP-1 [2] was 0.040 and the TIMP-2 [2] was 0.045. For the same molecule, the CXCL8/IL-8 [3] was 0.041, the CXCL9/MIG [3] was 0.091 and the CXCL10/IP-10 [3] was 0.056. The CXCL11/I-TAC [3] was -0.021, the EGFR [3] was 0.019 and the M-CSF [3] was 0.020. It also gave an MMP-1 [3] of 0.030, a PAI-I [3] of -0.011 and a Proliferation_72hr [3] of 0.020. For the same molecule, the SRB [3] was -0.014, the TIMP-1 [3] was -0.015 and the TIMP-2 [3] was 0.091. The CXCL8/IL-8 [4] was 0.013, the CXCL9/MIG [4] was 0.053 and the CXCL10/IP-10 [4] was 0.0016. For the same molecule, the CXCL11/I-TAC [4] was -0.010, the EGFR [4] was 0.012 and the M-CSF [4] was -0.000464. The MMP-1 [4] was 0.050, the PAI-I [4] was -0.034 and the Proliferation_72hr [4] was 0.048. The SRB [4] was -0.021, the TIMP-1 [4] was 0.010 and the TIMP-2 [4] was 0.080. The CXCL8/IL-8 [5] was 0.011, the CXCL9/MIG [5] was -0.074 and the CXCL10/IP-10 [5] was -0.076. The CXCL11/I-TAC [5] was 0.023, the EGFR [5] was 0.045 and the M-CSF [5] was 0.010. The MMP-1 [5] was 0.054, the PAI-I [5] was -0.028 and the Proliferation_72hr [5] was 0.002. The SRB [5] was -0.00187, the TIMP-1 [5] was -0.007 and the TIMP-2 [5] was 0.202. For the same molecule, the CCL2/MCP-1 (/HDFNo, 1.00E0 nM) was 0.028, the CD54/ICAM-1 (/HDFNo, 1.00E0 nM) was 0.066 and the CD106/VCAM-1 (/HDFNo, 1.00E0 nM) was 0.114. For the same molecule, the “Collagen I” value (/HDFNo, 1.00E0 nM) was 0.082, the “Collagen III” value (/HDFNo, 1.00E0 nM) was 0.065 and the CCL2/MCP-1 (/HDFNo, 1.00E1 nM) was 0.027. The CD54/ICAM-1 (/HDFNo, 1.00E1 nM) was 0.074, the CD106/VCAM-1 (/HDFNo, 1.00E1 nM) was 0.048 and the “Collagen I” value (/HDFNo, 1.00E1 nM) was 0.041. For the same molecule, the “Collagen III” value (/HDFNo, 1.00E1 nM) was 0.032, the CCL2/MCP-1 (/HDFNo, 1.00E2 nM) was 0.042 and the CD54/ICAM-1 (/HDFNo, 1.00E2 nM) was -0.013. The CD106/VCAM-1 (/HDFNo, 1.00E2 nM) was 0.065, the “Collagen I” value (/HDFNo, 1.00E2 nM) was 0.061 and the “Collagen III” value (/HDFNo, 1.00E2 nM) was 0.079. The CCL2/MCP-1 (/HDFNo, 1.00E3 nM) was 0.025, the CD54/ICAM-1 (/HDFNo, 1.00E3 nM) was 0.014 and the CD106/VCAM-1 (/HDFNo, 1.00E3 nM) was 0.026. The “Collagen I” value (/HDFNo, 1.00E3 nM) was 0.099 and the “Collagen III” value (/HDFNo, 1.00E3 nM) was 0.101.
